{"source": "patent US20200331850A1", "about": "“NOVEL SULFONAMIDE CARBOXAMIDE COMPOUNDS” (Inflazome Limited, priority 2017, published 2020)", "key": {"[1]": {"experiment": "PK protocol: pharmacokinetic parameters in male Sprague Dawley rats (intravenous or oral)", "type": "in vivo", "conditions": "plasma, rat; for Vd: read-out: Vdss", "protocol": "Pharmacokinetic parameters were determined in male Sprague Dawley rats (Charles River, UK, 250-350 g; or Vital River Laboratory Animal Technology Co Ltd, Beijing, China, 7-9 weeks old). Animals were individually housed during the study and maintained under a 12 h light/dark cycle.\nFor intravenous administration, compounds were formulated as a solution in water or DMSO:PBS [10:90] in 2 mL/kg dosing volume and administered via tail vein. For oral administration, compounds were formulated as a solution in DMSO:water [10:90] in 5 mL/kg dosing volume and administered orally.\nSerial blood samples (about 120-300 μL) were taken from each animal at each of 8 time-points post dose (0.083, 0.25, 0.5, 1, 2, 4, 8 and 24 h) or at each of 12 time-points post dose (0.03, 0.1, 0.17, 0.25, 0.5, 1, 2, 4, 6, 8, 12 and 24 h) or pre-dose and at each of 9 time-points post dose (0.25, 0.5, 1, 2, 4, 6, 8, 12 and 24 h). Samples were held on ice for no longer than 30 minutes before centrifugation (10,000 rpm (8,385 g) for 3 minutes; or 5,696 rpm (3,000 g) for 15 minutes) for plasma generation. Plasma was frozen on dry ice prior to bioanalysis. PK parameters were generated from LC-MS/MS data using Dotmatics or Phoenix WinNonlin 6.3 software."}, "NLRP3": {"molecular_target": "NLRP3 (Homo sapiens, UniProt Q96P20)", "sequence (Q96P20 whole entry)": "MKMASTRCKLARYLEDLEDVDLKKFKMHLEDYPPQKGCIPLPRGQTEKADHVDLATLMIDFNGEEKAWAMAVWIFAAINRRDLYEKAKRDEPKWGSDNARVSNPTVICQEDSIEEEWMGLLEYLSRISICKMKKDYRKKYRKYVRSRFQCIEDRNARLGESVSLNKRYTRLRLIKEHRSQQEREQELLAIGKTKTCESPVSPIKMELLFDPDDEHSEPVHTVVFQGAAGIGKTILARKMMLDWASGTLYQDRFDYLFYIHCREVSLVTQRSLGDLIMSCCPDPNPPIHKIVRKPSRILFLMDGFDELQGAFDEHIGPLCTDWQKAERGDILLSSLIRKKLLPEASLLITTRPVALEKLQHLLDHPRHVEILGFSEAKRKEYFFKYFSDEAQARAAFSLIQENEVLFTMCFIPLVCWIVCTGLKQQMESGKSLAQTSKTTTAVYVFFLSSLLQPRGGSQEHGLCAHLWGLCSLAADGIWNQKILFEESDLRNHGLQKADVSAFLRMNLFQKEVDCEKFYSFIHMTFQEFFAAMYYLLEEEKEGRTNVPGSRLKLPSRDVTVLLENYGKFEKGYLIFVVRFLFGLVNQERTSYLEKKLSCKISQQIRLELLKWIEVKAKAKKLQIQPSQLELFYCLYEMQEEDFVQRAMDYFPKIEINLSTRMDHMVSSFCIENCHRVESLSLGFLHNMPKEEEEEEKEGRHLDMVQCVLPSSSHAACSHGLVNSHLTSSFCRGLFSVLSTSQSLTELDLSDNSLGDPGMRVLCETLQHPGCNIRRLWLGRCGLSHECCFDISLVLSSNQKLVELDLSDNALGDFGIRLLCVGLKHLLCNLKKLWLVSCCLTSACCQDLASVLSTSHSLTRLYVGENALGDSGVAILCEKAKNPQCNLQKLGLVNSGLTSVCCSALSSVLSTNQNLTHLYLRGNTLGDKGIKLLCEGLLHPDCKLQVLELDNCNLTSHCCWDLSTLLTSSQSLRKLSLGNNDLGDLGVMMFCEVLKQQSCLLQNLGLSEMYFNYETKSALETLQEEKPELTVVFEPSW", "experiment": "Human whole blood IL1β release assay (LPS + nigericin, AlphaLisa IL-1β)", "type": "cell-based", "set-up": "Plate out 80 μl of whole blood containing 1βg/ml of LPS in 96-well, clear bottom cell culture plate; from tissue; host or cells: human whole blood from healthy donors, LPS-primed and nigericin-stimulated", "conditions": "NLRP3 inhibitory activity in human whole blood, IL-1β release, 10 μM nigericin, read-out: HWB IC50"}, "[2]": {"conditions": "intravenous administration, 1 mg/kg"}}, "note": "Structures can show the parent of a compound that is named as a salt.", "data": [{"smiles": "CCN(CC)CCCS(=O)(=O)NC(=O)Nc1c2c(cc3c1CCC3)CCC2", "note": "[Example 3, 3-(Diethylamino)-N-((1,2,3,5,6,7-hexahydro-s-indacen-4-yl)carbamoyl)propane-1-sulfonamide, potassium salt]", "values": [{"measurement": "AUC", "setting": "[1]; [2]", "value": 1180, "unit": "ng·h/mL"}, {"measurement": "clearance", "setting": "[1]; [2]", "value": 14.2, "unit": "mL/min/kg"}, {"measurement": "half-life", "setting": "[1]; [2]", "value": 1.5, "unit": "h"}, {"measurement": "Vd", "setting": "[1]; [2]", "value": 0.79, "unit": "L/kg"}, {"measurement": "AUC", "setting": "[1]; oral administration, 3 mg/kg", "value": 2270, "unit": "ng·h/mL"}, {"measurement": "CL/F", "setting": "[1]; oral administration, 3 mg/kg", "value": 22.6, "unit": "mL/min/kg"}, {"measurement": "Cmax", "setting": "[1]; oral administration, 3 mg/kg", "value": 819, "unit": "ng/mL"}, {"measurement": "Tmax", "setting": "[1]; oral administration, 3 mg/kg", "value": 0.42, "unit": "h"}, {"measurement": "bioavailability", "setting": "[1]; oral administration, 3 mg/kg", "value": 64.1, "unit": "%"}, {"measurement": "half-life", "setting": "[1]; oral administration, 3 mg/kg", "value": 1.8, "unit": "h"}, {"measurement": "IC50", "setting": "NLRP3", "value": "≤ 1000", "unit": "nM"}]}, {"smiles": "CN(C)CCCS(=O)(=O)NC(=O)Nc1c2c(cc3c1CCC3)CCC2", "note": "[Example 8, 3-(Dimethylamino)-N-((1,2,3,5,6,7-hexahydro-s-indacen-4-yl)carbamoyl)propane-1-sulfonamide, potassium salt]", "values": [{"measurement": "AUC", "setting": "[1]; [2]", "value": 2350, "unit": "ng·h/mL"}, {"measurement": "clearance", "setting": "[1]; [2]", "value": 7.1, "unit": "mL/min/kg"}, {"measurement": "half-life", "setting": "[1]; [2]", "value": 1.1, "unit": "h"}, {"measurement": "Vd", "setting": "[1]; [2]", "value": 0.49, "unit": "L/kg"}, {"measurement": "IC50", "setting": "NLRP3", "value": "≤ 1000", "unit": "nM"}]}, {"smiles": "O=C(Nc1c2c(cc3c1CCC3)CCC2)NS(=O)(=O)CCN1CCC1", "note": "[Example 29, 2-(Azetidin-1-yl)-N-((1,2,3,5,6,7-hexahydro-s-indacen-4-yl)carbamoyl)ethane-1-sulfonamide, Potassium Salt]", "values": [{"measurement": "AUC", "setting": "[1]; [2]", "value": 2780, "unit": "ng·h/mL"}, {"measurement": "clearance", "setting": "[1]; [2]", "value": 6, "unit": "mL/min/kg"}, {"measurement": "half-life", "setting": "[1]; [2]", "value": 1.3, "unit": "h"}, {"measurement": "Vd", "setting": "[1]; [2]", "value": 0.53, "unit": "L/kg"}, {"measurement": "IC50", "setting": "NLRP3", "value": "≤ 1000", "unit": "nM"}]}, {"smiles": "CCN(CC)CCCS(=O)(=O)NC(=O)Nc1c(-c2cccnc2)cc(F)cc1C(C)C", "note": "[Example 37, 3-(Diethylamino)-N-((4-fluoro-2-isopropyl-6-(pyridin-3-yl)phenyl)carbamoyl)propane-1-sulfonamide]", "values": [{"measurement": "AUC", "setting": "[1]; [2]", "value": 591, "unit": "ng·h/mL"}, {"measurement": "clearance", "setting": "[1]; [2]", "value": 28.2, "unit": "mL/min/kg"}, {"measurement": "half-life", "setting": "[1]; [2]", "value": 0.9, "unit": "h"}, {"measurement": "Vd", "setting": "[1]; [2]", "value": 0.55, "unit": "L/kg"}, {"measurement": "IC50", "setting": "NLRP3", "value": "≤ 1000", "unit": "nM"}]}]}
